Laboratory results published in patent US4225610A, “Immunoactivators derived from amino thiazoles” (Pierre Fabre, S.A., priority 1977, dated 1980).
Where “and” joins values, the source holds several entries; their conditions need not be identical. Identical values can stand only once. Entries after “also recorded” stand apart in the source; their conditions may differ. Like-named read-outs stand apart in the source and are kept apart here.

Legend:
mice = assay: in vivo; assay type: in vivo
Source text: (§1) The acute toxicity after a single administration of the products per os was studied in mice.
(§2) The compounds were placed in suspension in a mixture of Tween 80™ and distilled water. […] Exper.

in vivo = assay type: in vivo; conditions: mouse, in vivo, po; mice, per os, single administration, 7 days
Source text: as §1, §2

[1] = tested on: Delayed Hypersensitivity Pleurisy to Bordetella pertussis; assay: Pleurisy of delayed hypersensitivity to Bordetella pertussis in rats after chronic treatment; assay type: in vivo; conditions: for Action on the volume of exudate / Action on the number of mononuclears / Action on the number of polynuclears / Action on the total number of leukocytes: 5 mg/kg p.o.; for Delayed hypersensitivity pleural inflammation (in words) / Action compared with levamisole (in words): orally, chronic treatment, 5 mg/kg/administration; for Action compared with levamisole (in words): both treatment procedures
Procedure: II--Action on Pleurisy of Delayed Hypersensitivity to Bordetella pertussis in Rats After Chronic Treatment […]
Male rats weighing 280-320 g are used. The suspension of Bordetella pertussis used is the pertussis vaccine of the Pasteur Institute (5×10^9 killed bacilli per ml). The Bordetella pertussis suspension is mixed (V/V: 50/50) with Freund's complete adjuvant. 0.2 ml of this mixture is injected intramuscularly into each thigh of the rat.
6 days later, 0.1 ml of the Bordetella pertussis suspension is injected into the pleural cavity. 48 hours later, the pleural exudate formed is removed and measured. The total number of leukocytes and the number of mononuclears and polynuclears of the exudate are determined.
The products studied were administered chronically in accordance with two procedures:
Procedure 1: The treatment commences on the day of the sensitization and continues at the rate of one administration per day until the challenge injection. On the day of the latter the compounds are given twice: one administration before and one after the intrapleural injection of the antigen. The animals are treated a last time 24 hours later.
Procedure 2: The treatment commences three weeks before the sensitization. During these three weeks, the products are given at the rate of 5 times per week. The treatment is then continued as indicated above in Procedure 1.

[2] = tested on: cutaneous delayed hypersensitivity reaction to PPD; assay type: in vivo, albino guinea pigs
[3] = Chronic toxicity per os for two months in rats; conditions: rat, in vivo, po, read-out: Dose not resulting in any toxic phenomenon
[4] = 1000 mg/kg per os, 5 mice per lot
[5] = 200 mg/kg per os, 5 mice per lot

Compound	Solubility in DMA (Solubility)	Solubility in methyl pyrrolidone (Solubility)	Solubility in water (Solubility)	Mortality at the end of 7 days (mice; [4])	LD50 at 168 h (in vivo)	further results
O=C(Nc1nc(-c2ccc(Cl)cc2)cs1)Oc1ccccc1 [F 1687]	5%	5%	insoluble	0	> 1000 mg/kg	–
Nc1nc(-c2ccc(Cl)cc2)cs1 [F 1654, 4-Parachloro-phenyl 2-amino thiazole]	–	–	insoluble	–	300 mg/kg	Solubility in ethanol (Solubility): 15%; Mortality at the end of 7 days (mice; [5]): 0; Mortality at the end of 7 days (mice; 300 mg/kg per os, 5 mice per lot): 3; Mortality at the end of 7 days (mice; 500 mg/kg per os, 5 mice per lot): 5; Action on the volume of exudate ([1]; Treatment procedure 2): -41%; Delayed hypersensitivity pleural inflammation (in words) [1]: reduce the delayed hypersensitivity pleural inflammation; Action compared with levamisole (in words) [1]: superior to that of levamisole
CCCCCCCCCCCCCCCCCC(=O)Nc1nc(-c2ccccc2)cs1 [F 1656, 4-phenyl 2-stearamido thiazole]	20%	20%	insoluble	0	> 1000 mg/kg	–
CCOC(=O)Nc1nc(-c2ccccc2)cs1 [F 1658, 4-phenyl 2-(ethoxycarboxamido) thiazole]	25%	25%	insoluble	–	–	–
CCCCCCCCCCCC(=O)Nc1nc(-c2ccccc2)cs1 [F 1655]	25%	25%	insoluble	0	> 1000 mg/kg	–
O=C(Nc1nc(-c2ccccc2)cs1)c1cccnc1 [F 1684, N(4-phenyl 2-thiazolyl) nicotinamide]	5%	5%	insoluble	0	> 1000 mg/kg	–
O=C(O)CCC(=O)Nc1nc(-c2ccccc2)cs1 [F 1657, N(4-phenyl 2-thiazolyl) succinamic acid]	20%	25%	insoluble	0	> 1000 mg/kg	–
Nc1nc(-c2ccccc2)cs1 [F 1653, 4-phenyl 2-amino thiazole]	–	–	insoluble	–	140 mg/kg	Solubility in dimethyl pyrrolidone (Solubility; dimethyl pyrrolidone): 20%; Solubility in ethanol (Solubility): 1%; Mortality at the end of 7 days (mice; 100 mg/kg per os, 5 mice per lot): 0; Mortality at the end of 7 days (mice; [5]): 5
O=C(O)CCC(=O)Nc1nc(-c2ccc(Cl)cc2)cs1 [F 1683, N(4-parachlorophenyl 2-thiazolyl) succinamic acid]	20%	20%	insoluble	0	> 1000 mg/kg	–
O=C(Nc1nc(-c2ccc(Cl)cc2)cs1)c1cccnc1 [F 1685, N(4-parachlorophenyl 2-thiazolyl) nicotinamide]	20%	20%	insoluble	0	> 1000 mg/kg	–
O=C(Nc1nc(-c2ccccc2)cs1)OCC(Cl)(Cl)Cl [F 1686, 4-phenyl-2-(2'-2'-2'-trichloroethoxycarboxamido) thiazole]	25%	20%	insoluble	–	> 1000 mg/kg	Solubility in ethanol (Solubility): 3%; Mortality at the end of 7 days (mice; 1000 mg/kg per os, 10 mice per lot): 0; Effect on the response to PPD (in words) ([2]; […], response of low intensity in controls (two to three weeks)): stimulate the response; Effect on the response to PPD (in words) ([2]; after 5 and 6 weeks): do not modify it significantly any longer; Stimulation of the reaction to the PPD (in words) ([2]; dependence on immune state): does not stimulate the reaction to the PPD except when the guinea pigs are in a state of hypoimmunization; Action on the number of mononuclears ([1]; Treatment procedure 1): -21%; Action on the number of polynuclears ([1]; Treatment procedure 1): -16%; Action on the total number of leukocytes ([1]; Treatment procedure 1): -19%; Action on the volume of exudate ([1]; Treatment procedure 1): -35%; Action on the number of mononuclears ([1]; Treatment procedure 2): -29%; Action on the number of polynuclears ([1]; Treatment procedure 2): -6%; Action on the total number of leukocytes ([1]; Treatment procedure 2): -22%; Action on the volume of exudate ([1]; Treatment procedure 2, 5 mg/kg): -50% and -42%; Delayed hypersensitivity pleural inflammation (in words) [1]: reduce the delayed hypersensitivity pleural inflammation; Action compared with levamisole (in words) [1]: superior to that of levamisole; NOAEL at 1460 h [3]: ≤ 30 mg/kg/day
c1ccc([C@H]2CN3CCSC3=N2)cc1 [Levamisole, L-tetramisole, reference compound]	–	–	–	–	–	Effect on the response to PPD (in words) ([2]; guinea pig, in vivo): to a definitely lesser degree stimulate the response; also recorded: do not modify it significantly any longer; Action on the number of mononuclears ([1]; Treatment procedure 1): -11%; Action on the number of polynuclears ([1]; Treatment procedure 1): -9%; Action on the total number of leukocytes ([1]; Treatment procedure 1): -10%; Action on the volume of exudate ([1]; Treatment procedure 1): -22%; Action on the number of mononuclears ([1]; Treatment procedure 2): -17%; Action on the number of polynuclears ([1]; Treatment procedure 2): -7%; Action on the total number of leukocytes ([1]; Treatment procedure 2): -13%; Action on the volume of exudate ([1]; Treatment procedure 2): -23%
O=C(Nc1nc(-c2ccccc2)cs1)Oc1ccccc1 [F 1659, 4-phenyl 2-phenoxy carbamoyl thiazole]	4%	3%	insoluble	0	> 1000 mg/kg	–
O=C(Nc1nc(-c2ccc(Cl)cc2)cs1)OCC(Cl)(Cl)Cl [F 1660, 4-parachlorophenyl 2-(2'-2'-2'-trichloroethoxycarbamido) thiazole]	20%	20%	insoluble	0	> 1000 mg/kg	–
